Assay results taken from ChEMBL document CHEMBL1649329, “Differential selection of single-step AmpC or efflux mutants of Pseudomonas aeruginosa by using cefepime, ceftazidime, or ceftobiprole” (2010).
Values after ≈ are worked out from the molar mass of the structure shown.

What was measured:
Assay type in all cases: functional
Pseudomonas aeruginosa [1] = assay: Antimicrobial activity against Pseudomonas aeruginosa OC 12070 expressing 36 fold elevated mexX expression and 39 fold elevated mexY expression by broth macrodilution method
Pseudomonas aeruginosa [2] = assay: Antimicrobial activity against Pseudomonas aeruginosa OC 11678 expressing 32 fold elevated AmpC expression by broth macrodilution method
Pseudomonas aeruginosa [3] = assay: Antimicrobial activity against Pseudomonas aeruginosa OC 11678 expressing 30 fold elevated AmpC expression by broth macrodilution method
Pseudomonas aeruginosa [4] = assay: Antimicrobial activity against Pseudomonas aeruginosa OC 12070 by broth macrodilution method
Pseudomonas aeruginosa [5] = assay: microbe, parasite or virus in culture; settings: OC 11678
Description: Antimicrobial activity against Pseudomonas aeruginosa OC 11678 expressing 27 fold elevated mexX expression and 16 fold elevated mexY expression by broth macrodilution method

Pseudomonas aeruginosa [6] = assay: Antimicrobial activity against Pseudomonas aeruginosa OC 12070 expressing 8 fold elevated AmpC expression by broth macrodilution method
Pseudomonas aeruginosa [7] = assay: Antimicrobial activity against Pseudomonas aeruginosa OC 12070 expressing 107 fold elevated mexX expression and 155 fold elevated mexY expression by broth macrodilution method
Pseudomonas aeruginosa [8] = assay: Antimicrobial activity against Pseudomonas aeruginosa OC 11678 expressing 9 fold elevated AmpC expression by broth macrodilution method
Pseudomonas aeruginosa [9] = assay: Antimicrobial activity against wild type Pseudomonas aeruginosa ATCC 27853 by broth macrodilution method
Pseudomonas aeruginosa [10] = assay: Antimicrobial activity against Pseudomonas aeruginosa OC 11678 expressing 31 fold elevated AmpC expression by broth macrodilution method
Pseudomonas aeruginosa [11] = assay: Antimicrobial activity against Pseudomonas aeruginosa OC 12070 expressing 10 fold elevated mexX expression and 23 fold elevated mexY expression by broth macrodilution method
Pseudomonas aeruginosa [12] = assay: Antimicrobial activity against Pseudomonas aeruginosa OC 12070 expressing 11 fold elevated mexX expression and 10 fold elevated mexY expression by broth macrodilution method
Pseudomonas aeruginosa [13] = assay: Antimicrobial activity against Pseudomonas aeruginosa OC 12070 expressing 11 fold elevated AmpC expression by broth macrodilution method
Pseudomonas aeruginosa [14] = assay: Antimicrobial activity against Pseudomonas aeruginosa OC 11678 expressing 34 fold elevated AmpC expression by broth macrodilution method
Pseudomonas aeruginosa [15] = assay: Antimicrobial activity against Pseudomonas aeruginosa OC 12070 expressing 151 fold elevated mexX expression and 127 fold elevated mexY expression by broth macrodilution method
Pseudomonas aeruginosa [16] = assay: Antimicrobial activity against Pseudomonas aeruginosa OC 11678 expressing 15 fold elevated AmpC expression by broth macrodilution method
Pseudomonas aeruginosa [17] = assay: Antimicrobial activity against Pseudomonas aeruginosa OC 11678 expressing 29 fold elevated AmpC expression by broth macrodilution method
Pseudomonas aeruginosa [18] = assay: Antimicrobial activity against Pseudomonas aeruginosa OC 11678 expressing 40 fold elevated AmpC expression by broth macrodilution method
Pseudomonas aeruginosa [19] = assay: Antimicrobial activity against Pseudomonas aeruginosa OC 11678 expressing 71 fold elevated mexX expression and 43 fold elevated mexY expression by broth macrodilution method
Pseudomonas aeruginosa [20] = assay: Antimicrobial activity against Pseudomonas aeruginosa OC 12070 expressing 65 fold elevated mexX expression and 106 fold elevated mexY expression by broth macrodilution method
Pseudomonas aeruginosa [21] = assay: Antimicrobial activity against wild type Pseudomonas aeruginosa
Pseudomonas aeruginosa [22] = assay: Antimicrobial activity against wild type Pseudomonas aeruginosa PAO1 by broth macrodilution method
Pseudomonas aeruginosa [23] = assay: Antimicrobial activity against Pseudomonas aeruginosa OC 11053 by broth macrodilution method
Pseudomonas aeruginosa [24] = assay: Antimicrobial activity against Pseudomonas aeruginosa OC 11678 expressing 36 fold elevated AmpC expression by broth macrodilution method
Pseudomonas aeruginosa [25] = assay: Antimicrobial activity against Pseudomonas aeruginosa OC 11492 by broth macrodilution method
Pseudomonas aeruginosa [26] = assay: Antimicrobial activity against Pseudomonas aeruginosa OC 11678 expressing 33 fold elevated AmpC expression by broth macrodilution method
Pseudomonas aeruginosa [27] = assay: Antimicrobial activity against Pseudomonas aeruginosa OC 12070 expressing 12 fold elevated mexX expression and 25 fold elevated mexY expression by broth macrodilution method
Pseudomonas aeruginosa [28] = assay: Antimicrobial activity against Pseudomonas aeruginosa OC 11678 by broth macrodilution method
Pseudomonas aeruginosa [29] = assay: Antimicrobial activity against Pseudomonas aeruginosa OC 12261 by broth macrodilution method
Pseudomonas aeruginosa [30] = assay: Antimicrobial activity against Pseudomonas aeruginosa OC 12070 expressing 5 fold elevated AmpC expression by broth macrodilution method
Pseudomonas aeruginosa [31] = assay: Antimicrobial activity against Pseudomonas aeruginosa OC 4351 by broth macrodilution method
Pseudomonas aeruginosa [32] = assay: Antimicrobial activity against Pseudomonas aeruginosa OC 11678 expressing 31 fold elevated mexX expression and 17 fold elevated mexY expression by broth macrodilution method
Pseudomonas aeruginosa [33] = assay: Antimicrobial activity against Pseudomonas aeruginosa OC 12070 expressing 37 fold elevated AmpC expression by broth macrodilution method
Pseudomonas aeruginosa [34] = assay: Antimicrobial activity against Pseudomonas aeruginosa OC 12070 expressing 7 fold elevated AmpC expression by broth macrodilution method
Pseudomonas aeruginosa [35] = assay: Antimicrobial activity against Pseudomonas aeruginosa OC 12070 expressing 27 fold elevated mexX expression and 49 fold elevated mexY expression by broth macrodilution method

Row | SMILES | MIC (Pseudomonas aeruginosa [1]) | MIC (Pseudomonas aeruginosa [2]) | MIC (Pseudomonas aeruginosa [3]) | MIC (Pseudomonas aeruginosa [4]) | MIC (Pseudomonas aeruginosa [5]) | MIC (Pseudomonas aeruginosa [6]) | MIC (Pseudomonas aeruginosa [7]) | MIC (Pseudomonas aeruginosa [8]) | MIC (Pseudomonas aeruginosa [9]) | MIC (Pseudomonas aeruginosa [10]) | MIC (Pseudomonas aeruginosa [11]) | MIC (Pseudomonas aeruginosa [12]) | MIC (Pseudomonas aeruginosa [13]) | MIC (Pseudomonas aeruginosa [14]) | MIC (Pseudomonas aeruginosa [15]) | MIC (Pseudomonas aeruginosa [16]) | MIC (Pseudomonas aeruginosa [17]) | MIC (Pseudomonas aeruginosa [18]) | MIC (Pseudomonas aeruginosa [19]) | MIC (Pseudomonas aeruginosa [20]) | other results
1 | CC(C)(O/N=C(\C(=O)N[C@@H]1C(=O)N2C(C(=O)[O-])=C(C[n+]3ccccc3)CS[C@H]12)c1csc(N)n1)C(=O)O [CEFTAZIDIME] | 4 µg/mL (≈ 7.32 µM) | 128 µg/mL (≈ 234 µM) | 128 µg/mL (≈ 234 µM) | 2 µg/mL (≈ 3.66 µM) | 4 µg/mL (≈ 7.32 µM) | 32 µg/mL (≈ 58.5 µM) | 16 µg/mL (≈ 29.3 µM) | 64 µg/mL (≈ 117 µM) | 2 µg/mL (≈ 3.66 µM) | 128 µg/mL (≈ 234 µM) | 8 µg/mL (≈ 14.6 µM) | 2 µg/mL (≈ 3.66 µM) | 32 µg/mL (≈ 58.5 µM) | 128 µg/mL (≈ 234 µM) | 8 µg/mL (≈ 14.6 µM) | 64 µg/mL (≈ 117 µM) | 128 µg/mL (≈ 234 µM) | 128 µg/mL (≈ 234 µM) | 32 µg/mL (≈ 58.5 µM) | 16 µg/mL (≈ 29.3 µM) | MIC50 (Pseudomonas aeruginosa [21]): 2 µg/mL (≈ 3.66 µM); MIC (Pseudomonas aeruginosa [22]): 1 µg/mL (≈ 1.83 µM); MIC (Pseudomonas aeruginosa [23]): 1 µg/mL (≈ 1.83 µM); MIC (Pseudomonas aeruginosa [24]): 64 µg/mL (≈ 117 µM); MIC (Pseudomonas aeruginosa [25]): 2 µg/mL (≈ 3.66 µM); MIC (Pseudomonas aeruginosa [26]): 128 µg/mL (≈ 234 µM); MIC (Pseudomonas aeruginosa [27]): 4 µg/mL (≈ 7.32 µM); MIC (Pseudomonas aeruginosa [28]): 4 µg/mL (≈ 7.32 µM); MIC (Pseudomonas aeruginosa [29]): 4 µg/mL (≈ 7.32 µM); MIC (Pseudomonas aeruginosa [30]): 16 µg/mL (≈ 29.3 µM); MIC (Pseudomonas aeruginosa [31]): 1 µg/mL (≈ 1.83 µM); MIC (Pseudomonas aeruginosa [32]): 4 µg/mL (≈ 7.32 µM); MIC (Pseudomonas aeruginosa [33]): 32 µg/mL (≈ 58.5 µM); MIC (Pseudomonas aeruginosa [34]): 64 µg/mL (≈ 117 µM); MIC (Pseudomonas aeruginosa [35]): 4 µg/mL (≈ 7.32 µM)
2 | CO/N=C(\C(=O)N[C@@H]1C(=O)N2C(C(=O)[O-])=C(C[N+]3(C)CCCC3)CS[C@H]12)c1csc(N)n1 [CEFEPIME] | 8 µg/mL (≈ 16.6 µM) | 32 µg/mL (≈ 66.6 µM) | 32 µg/mL (≈ 66.6 µM) | 2 µg/mL (≈ 4.16 µM) | 8 µg/mL (≈ 16.6 µM) | 16 µg/mL (≈ 33.3 µM) | 16 µg/mL (≈ 33.3 µM) | 32 µg/mL (≈ 66.6 µM) | 2 µg/mL (≈ 4.16 µM) | 32 µg/mL (≈ 66.6 µM) | 8 µg/mL (≈ 16.6 µM) | 8 µg/mL (≈ 16.6 µM) | 16 µg/mL (≈ 33.3 µM) | 32 µg/mL (≈ 66.6 µM) | 8 µg/mL (≈ 16.6 µM) | 32 µg/mL (≈ 66.6 µM) | 32 µg/mL (≈ 66.6 µM) | 32 µg/mL (≈ 66.6 µM) | 32 µg/mL (≈ 66.6 µM) | 16 µg/mL (≈ 33.3 µM) | MIC50 (Pseudomonas aeruginosa [21]): 4 µg/mL (≈ 8.32 µM); MIC (Pseudomonas aeruginosa [22]): 2 µg/mL (≈ 4.16 µM); MIC (Pseudomonas aeruginosa [23]): 4 µg/mL (≈ 8.32 µM); MIC (Pseudomonas aeruginosa [24]): 32 µg/mL (≈ 66.6 µM); MIC (Pseudomonas aeruginosa [25]): 4 µg/mL (≈ 8.32 µM); MIC (Pseudomonas aeruginosa [26]): 32 µg/mL (≈ 66.6 µM); MIC (Pseudomonas aeruginosa [27]): 8 µg/mL (≈ 16.6 µM); MIC (Pseudomonas aeruginosa [28]): 8 µg/mL (≈ 16.6 µM); MIC (Pseudomonas aeruginosa [29]): 4 µg/mL (≈ 8.32 µM); MIC (Pseudomonas aeruginosa [30]): 8 µg/mL (≈ 16.6 µM); MIC (Pseudomonas aeruginosa [31]): 2 µg/mL (≈ 4.16 µM); MIC (Pseudomonas aeruginosa [32]): 8 µg/mL (≈ 16.6 µM); MIC (Pseudomonas aeruginosa [33]): 16 µg/mL (≈ 33.3 µM); MIC (Pseudomonas aeruginosa [34]): 16 µg/mL (≈ 33.3 µM); MIC (Pseudomonas aeruginosa [35]): 8 µg/mL (≈ 16.6 µM)
3 | Nc1nc(/C(=N/O)C(=O)N[C@@H]2C(=O)N3C(C(=O)O)=C(/C=C4\CCN([C@@H]5CCNC5)C4=O)CS[C@H]23)ns1 [CEFTOBIPROLE] | 16 µg/mL (≈ 29.9 µM) | 4 µg/mL (≈ 7.48 µM) | 4 µg/mL (≈ 7.48 µM) | 2 µg/mL (≈ 3.74 µM) | 8 µg/mL (≈ 15 µM) | 4 µg/mL (≈ 7.48 µM) | 16 µg/mL (≈ 29.9 µM) | 4 µg/mL (≈ 7.48 µM) | 2 µg/mL (≈ 3.74 µM) | 4 µg/mL (≈ 7.48 µM) | 16 µg/mL (≈ 29.9 µM) | 8 µg/mL (≈ 15 µM) | 4 µg/mL (≈ 7.48 µM) | 4 µg/mL (≈ 7.48 µM) | 16 µg/mL (≈ 29.9 µM) | 4 µg/mL (≈ 7.48 µM) | 8 µg/mL (≈ 15 µM) | 4 µg/mL (≈ 7.48 µM) | 32 µg/mL (≈ 59.9 µM) | 16 µg/mL (≈ 29.9 µM) | MIC50 (Pseudomonas aeruginosa [21]): 2 µg/mL (≈ 3.74 µM); MIC (Pseudomonas aeruginosa [22]): 2 µg/mL (≈ 3.74 µM); MIC (Pseudomonas aeruginosa [23]): 4 µg/mL (≈ 7.48 µM); MIC (Pseudomonas aeruginosa [24]): 4 µg/mL (≈ 7.48 µM); MIC (Pseudomonas aeruginosa [25]): 8 µg/mL (≈ 15 µM); MIC (Pseudomonas aeruginosa [26]): 4 µg/mL (≈ 7.48 µM); MIC (Pseudomonas aeruginosa [27]): 16 µg/mL (≈ 29.9 µM); MIC (Pseudomonas aeruginosa [28]): 4 µg/mL (≈ 7.48 µM); MIC (Pseudomonas aeruginosa [29]): 4 µg/mL (≈ 7.48 µM); MIC (Pseudomonas aeruginosa [30]): 4 µg/mL (≈ 7.48 µM); MIC (Pseudomonas aeruginosa [31]): 2 µg/mL (≈ 3.74 µM); MIC (Pseudomonas aeruginosa [32]): 8 µg/mL (≈ 15 µM); MIC (Pseudomonas aeruginosa [33]): 2 µg/mL (≈ 3.74 µM); MIC (Pseudomonas aeruginosa [34]): 4 µg/mL (≈ 7.48 µM); MIC (Pseudomonas aeruginosa [35]): 16 µg/mL (≈ 29.9 µM)
